Measured values reported in patent US9751837B2, “Kinase inhibitors” (RESPIVERT LIMITED, priority 2014, dated 2017).
Converted amounts (≈) assume the structure as drawn. Where a name gives a salt, the structure may show the parent alone. Read-outs that look alike come from different tables or passages of the source.

Experiment: Solubility in fasted-state simulated colonic fluid (FaSSCoF) at pH 6.5
Assay type: physicochemical
Details: 25 °C, pH 6.5, fassgf or other biorelevant, thermodynamic from solid
Method: The solubilities of compounds of the invention in FaSSCoF at pH 6.5 are determined using a modification of a previously-reported procedure (Vertzoni, M., et al. Pharm. Res. 2010, 27, 2187-2196). In place of the bile salt extract employed in the original procedure (which extract is no longer available), the modified procedure uses a mixture of sodium taurochlorate (0.15 g), glycocholic acid (0.15 g), ursodeoxycholic acid (0.05 g), cholic acid (0.05 g), and glycodeoxycholic acid (0.05 g). These five bile acids are ground together with a mortar and pestle to produce a fine white powder that is incorporated into the FaSSCoF, as outlined below.
Tris(hydroxymethyl)aminomethane (Tris; 0.275 g) and maleic acid (0.44 g) are dissolved in water (35 mL) to give a solution whose pH is adjusted to 6.5 by treatment with 0.5M NaOH (ca. 12 mL). The solution is then made up to 50 mL with water. A portion of this Tris/maleate buffer solution (ca. 25 mL) is added to a 0.5 L round-bottomed flask, before being treated with 0.00565 g of the bile acid mixture described above. Solutions of phosphatidylcholine (0.0111 g) in DCM (0.15 mL) and palmitic acid (0.0013 g) in DCM (0.15 mL) are added, then the organic solvent is evaporated off under reduced pressure at 40° C. until a clear solution, with no perceptible DCM odour, is achieved. The volume of the evaporated solution is adjusted to 50 mL by addition of the remainder of Tris/maleate buffer, then BSA (0.115 g) is added, before being dissolved by gentle agitation.
Test compounds are suspended in the pH 6.5 FaSSCoF medium to give a maximum final concentration of 2-10 mg/mL. The suspensions are equilibrated at 25° C. for 24 h, before being filtered through a glass fibre C filter. The filtrates are then diluted as appropriate for injection and quantification by HPLC with reference to a standard. Different volumes of the standard, diluted and undiluted sample solutions are injected and the solubilities are calculated using the peak areas determined by integration of the peak found at the same retention time as the principal peak in the standard injection.

[1] = pH 6.5 FaSSCoF Solubility (mg/mL) Run 1
[2] = pH 6.5 FaSSCoF Solubility (mg/mL) Run 2

Compound	solubility thermodynamic at 24 h (FaSSCoF pH 6.5, 25° C., 24 h, Run 1, read-out: pH 6.5 FaSSCoF Solubility (mg/mL) Run 1) [mg/mL]	solubility thermodynamic at 24 h (FaSSCoF pH 6.5, 25° C., 24 h, Run 2, read-out: pH 6.5 FaSSCoF Solubility (mg/mL) Run 2) [mg/mL]	solubility thermodynamic at 24 h [1] [mg/mL]	solubility thermodynamic at 24 h [2] [mg/mL]
COc1cc(Nc2cc(Oc3ccc(NC(=O)Nc4cc(C(C)(C)C)cc(NS(C)(=O)=O)c4OC)c4ccccc34)ccn2)ccc1C(=O)NC[C@@H]1O[C@H](CO)[C@@H](O)[C@H](O)[C@H]1O [17(co), 4-((4-((4-(3-(5-(tert-Butyl)-2-methoxy-3-(methylsulfonamido)phenyl)ureido)naphthalen-1-yl)oxy)pyridin-2-yl)amino)-2-methoxy-N-(((2S,3R,4R,5S,6R)-3,4,5-trihydroxy-6-(hydroxymethyl)tetrahydro-2H-pyran-2-yl)methyl)benzamide]	0.005 (≈ 5.71 µM)	0.006 (≈ 6.86 µM)		
COc1cc(Nc2cc(Oc3ccc(NC(=O)Nc4cc(C(C)(C)C)cc(NS(C)(=O)=O)c4OC)c4ccccc34)ccn2)cc(OC)c1C(=O)NCC(CO)(CO)CO [17(cn), 4-((4-((4-(3-(5-(tert-Butyl)-2-methoxy-3-(methylsulfonamido)phenyl)ureido)naphthalen-1-yl)oxy)pyridin-2-yl)amino)-N-(3-hydroxy-2,2-bis(hydroxymethyl)propyl)-2,6-dimethoxybenzamide]			0.025 (≈ 29.5 µM)	0.017 (≈ 20.1 µM)
COc1cc(Nc2cc(Oc3ccc(NC(=O)Nc4cc(C(C)(C)C)cc(NS(C)(=O)=O)c4OC)c4ccccc34)ccn2)cc(OC)c1C(=O)NCCOCCOCCOP(=O)(O)O [47 (sodium salt), 2-(2-(2-(4-((4-((4-(3-(5-(tert-butyl)-2-methoxy-3-(methylsulfonamido)phenyl)ureido)-naphthalen-1-yl)oxy)pyridin-2-yl)amino)-2,6-dimethoxybenzamido)ethoxy)ethoxy)ethyl dihydrogen phosphate]			> 1.9	> 2
COc1cc(Nc2cc(Oc3ccc(NC(=O)Nc4cc(C(C)(C)C)cc(NS(C)(=O)=O)c4OC)c4ccccc34)ccn2)ccc1CP(C)(=O)O [70 (sodium salt)]			> 2.8	> 2.8
COc1cc(Nc2cc(Oc3ccc(NC(=O)Nc4cc(C(C)(C)C)cc(NS(C)(=O)=O)c4OC)c4ccccc34)ccn2)ccc1S(=O)(=O)CCOCCOCCO [Example 40, N-(5-(tert-Butyl)-3-(3-(4-((2-((4-((2-(2-(2-hydroxyethoxy)ethoxy)ethyl)sulfonyl)-3-methoxyphenyl)amino)pyridin-4-yl)oxy)naphthalen-1-yl)ureido)-2-methoxyphenyl)-methanesulfonamide]			0.005 (≈ 5.87 µM)	0.005 (≈ 5.87 µM)
COc1cc(Nc2cc(Oc3ccc(NC(=O)Nc4cc(C(C)(C)C)cc(NS(C)(=O)=O)c4OC)c4ccccc34)ccn2)cc(OC)c1C(=O)N1CCN(CCN(C)C)CC1 [17(cg), N-(5-(tert-Butyl)-3-(3-(4-((2-((4-(4-(2-(dimethylamino)ethyl)piperazine-1-carbonyl)-3,5-dimethoxyphenyl)amino)pyridin-4-yl)oxy)naphthalen-1-yl)ureido)-2-methoxyphenyl)methane sulfonamide]			0.002 (≈ 2.3 µM)	
COc1cc(Nc2cc(Oc3ccc(NC(=O)Nc4cc(C(C)(C)C)cc(NS(C)(=O)=O)c4OC)c4ccccc34)ccn2)ccc1C(=O)NCCN1CCN(C2CC2)CC1 [Example 26, 4-((4-((4-(3-(5-(tert-Butyl)-2-methoxy-3-(methylsulfonamido)phenyl)ureido)naphthalen-1-yl)oxy)pyridin-2-yl)amino)-N-(2-(4-cyclopropylpiperazin-1-yl)ethyl)-2-methoxybenzamide]			0.011 (≈ 12.9 µM)	0.011 (≈ 12.9 µM)
CCC(=O)NS(=O)(=O)c1ccc(Nc2nccc(Oc3ccc(NC(=O)Nc4cc(C(C)(C)C)cc(NS(C)(=O)=O)c4OC)c4ccccc34)n2)cc1OC [17(bk) (sodium salt), N-((4-((4-((4-(3-(5-(tert-Butyl)-2-methoxy-3-(methylsulfonamido)phenyl)ureido)-naphthalen-1-yl)oxy)pyrimidin-2-yl)amino)-2-methoxyphenyl)sulfonyl)propionamide]			0.042	0.037
COc1cc(Nc2cc(Oc3ccc(NC(=O)Nc4cc(C(C)(C)C)cc(NS(C)(=O)=O)c4OC)c4ccccc34)ccn2)ccc1C(=O)NCCCC[C@H](N)C(=O)O [17(bu) (dihydrochloride salt), (S)-2-Amino-6-(4-((4-((4-(3-(5-(tert-butyl)-2-methoxy-3-(methylsulfonamido)phenyl)-ureido)naphthalen-1-yl)oxy)pyridin-2-yl)amino)-2-methoxybenzamido)hexanoic acid]			0.006	0.006
COc1c(NC(=O)Nc2ccc(Oc3ccnc(Nc4ccc(C(=O)NCCN5CCOCC5)c(N(C)C)c4)c3)c3ccccc23)cc(C(C)(C)C)cc1NS(C)(=O)=O [Example 21, 4-((4-((4-(3-(5-(tert-Butyl)-2-methoxy-3-(methylsulfonamido)phenyl)ureido)naphthalen-1-yl)oxy)pyridin-2-yl)amino)-2-(dimethylamino)-N-(2-morpholinoethyl)benzamide]			0.01 (≈ 12.1 µM)	0.01 (≈ 12.1 µM)
COc1cc(Nc2cc(Oc3ccc(NC(=O)Nc4cc(C(C)(C)C)cc(NS(C)(=O)=O)c4OC)c4ccccc34)ccn2)ccc1C(=O)NC[C@H](O)[C@@H](O)[C@H](O)[C@H](O)CO [17(bw), 4-((4-((4-(3-(5-(tert-Butyl)-2-methoxy-3-(methylsulfonamido)phenyl)ureido)naphthalen-1-yl)oxy)pyridin-2-yl)amino)-2-methoxy-N-((2S,3R,4R,5R)-2,3,4,5,6-pentahydroxyhexyl)benzamide]			0.002 (≈ 2.32 µM)	0.003 (≈ 3.48 µM)
COc1cc(Nc2cc(Oc3ccc(NC(=O)Nc4cc(C(C)(C)C)cc(NS(C)(=O)=O)c4OC)c4ccccc34)ccn2)ccc1S(=O)(=O)CCCN1CCOCC1 [Example 20, N-(5-(tert-Butyl)-2-methoxy-3-(3-(4-((2-((3-methoxy-4-((3-morpholinopropyl)sulfonyl)phenyl)-amino)pyridin-4-yl)oxy)naphthalen-1-yl)ureido)phenyl)methanesulfonamide]			0.004 (≈ 4.72 µM)	
COc1cc(Nc2cc(Oc3ccc(NC(=O)Nc4cc(C(C)(C)C)cc(NS(C)(=O)=O)c4OC)c4ccccc34)ccn2)ccc1C(=O)NCCNC(=O)CCC(=O)O [17(cd) (hydrochloride salt), 4-((2-(4-((4-((4-(3-(5-(tert-Butyl)-2-methoxy-3-(methylsulfonamido)phenyl)ureido)-naphthalen-1-yl)oxy)pyridin-2-yl)amino)-2-methoxybenzamido)ethyl)amino)-4-oxobutanoic acid]			0.051	0.049
COc1cc(Nc2cc(Oc3ccc(NC(=O)Nc4cc(C(C)(C)C)cc(NS(C)(=O)=O)c4OC)c4ccccc34)ccn2)ccc1C(=O)N[C@H]1C(O)O[C@H](CO)[C@@H](O)[C@@H]1O (stereo partly drawn) [17(br), 4-((4-((4-(3-(5-(tert-Butyl)-2-methoxy-3-(methylsulfonamido)phenyl)ureido)naphthalen-1-yl)oxy)pyridin-2-yl)amino)-2-methoxy-N-((3R,4R,5S,6R)-2,4,5-trihydroxy-6-(hydroxymethyl)tetrahydro-2H-pyran-3-yl)benzamide]			0.009 (≈ 10.5 µM)	0.008 (≈ 9.29 µM)
COc1cc(Nc2cc(Oc3ccc(NC(=O)Nc4cc(C(C)(C)C)cc(NS(C)(=O)=O)c4OC)c4ccccc34)ccn2)ccc1C(=O)NCCN1CCN(C(=O)CN(C)C)CC1 [17(cj), 4-((4-((4-(3-(5-(tert-Butyl)-2-methoxy-3-(methylsulfonamido)phenyl)ureido)naphthalen-1-yl)oxy)pyridin-2-yl)amino)-N-(2-(4-(2-(dimethylamino)acetyl)piperazin-1-yl)ethyl)-2-methoxybenzamide]			0.006 (≈ 6.7 µM)	0.006 (≈ 6.7 µM)
COc1cc(Nc2cc(Oc3ccc(NC(=O)Nc4cc(C(C)(C)C)cc(NS(C)(=O)=O)c4OC)c4ccccc34)ccn2)ccc1C(=O)NCC[N+]1([O-])CCOCC1 [Example 33, 4-(2-(4-((4-((4-(3-(5-(tert-Butyl)-2-methoxy-3-(methylsulfonamido)phenyl)ureido)naphthalen-1-yl)oxy)pyridin-2-yl)amino)-2-methoxybenzamido)ethyl)morpholine 4-oxide]			0.005 (≈ 6.04 µM)	0.005 (≈ 6.04 µM)
